Measurements reported in PubChem BioAssay (NCI).
“And” between values parts separate entries of the source, which are not always exact repeats. Equal values may be shown once.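 In this assay, cells in 96-well plates receive the compound at five concentrations for 48 hours. Endpoints are linearly interpolated between the surrounding concentrations. GI50 is the concentration that inhibits growth by half. Definition used: TGI = concentration required for complete inhibition of growth.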

Legend:
Assay in all cases: NCI tumour cell line growth inhibition, 48 h
SNB-19 CNS = test system: SNB-19 CNS
OVCAR-8 ovarian = test system: OVCAR-8 ovarian
CCRF-CEM leukemia = test system: CCRF-CEM leukemia
HL-60(TB) leukemia = test system: HL-60(TB) leukemia
NCI-H460 lung = test system: NCI-H460 lung
BT-549 breast = test system: BT-549 breast
RXF 393 renal = test system: RXF 393 renal
NCI-H226 lung = test system: NCI-H226 lung

| SMILES | GI50 (SNB-19 CNS) | TGI (SNB-19 CNS) | GI50 (OVCAR-8 ovarian) | TGI (OVCAR-8 ovarian) | GI50 (CCRF-CEM leukemia) | TGI (CCRF-CEM leukemia) | GI50 (HL-60(TB) leukemia) | TGI (HL-60(TB) leukemia) | GI50 (NCI-H460 lung) | TGI (NCI-H460 lung) | GI50 (BT-549 breast) | TGI (BT-549 breast) | GI50 (RXF 393 renal) | TGI (RXF 393 renal) | GI50 (NCI-H226 lung) | TGI (NCI-H226 lung) |
| --- | --- | --- | --- | --- | --- | --- | --- | --- | --- | --- | --- | --- | --- | --- | --- | --- |
| COc1cnc2c(c1)C(=O)c1c-2n(CCCNC(C)C)c(=O)c2cc(F)ccc12 | 0.179 µM | 1.32 µM | 0.141 µM | 1.28 µM | 0.111 µM | 10.7 µM | 0.161 µM | 0.615 µM | 0.042 µM | 0.175 µM | 0.655 µM | 4.09 µM | 0.23 µM | 0.702 µM | 0.146 µM | 0.325 µM |
| N#CS.N=C=S.N=C=S.[Cu+2].[NH2-].[NH2-].[NH2-].[NH2-].c1ccc2ncccc2c1 | 18.1 µM | 32.9 µM | > 100 µM | > 100 µM | 24.3 µM | 57.5 µM | > 100 µM | > 100 µM | 22.6 µM | 48.7 µM | > 100 µM | > 100 µM | 25.5 µM | 44 µM | 28.3 µM | 49.4 µM |
| CCS(=O)(=O)Nc1cccc(Nc2c3cccc(C)c3nc3c(C)cccc23)c1OC | 0.572 µM | > 88.3 µM | 1.19 µM | 74.5 µM | 0.264 µM | > 100 µM | 0.25 µM | – | 0.104 µM | 4.6 µM | 2.54 µM | 25.1 µM | 1.98 µM | 13.2 µM | 0.627 µM | 4.76 µM |
| S=C(N/N=C(/c1ccccc1)c1ccccn1)N1CCCCCC1 | 0.274 µM | 2.27 µM and 2.06 µM | 0.00375 µM | 1.65 µM and 1.33 µM | < 0.001 µM | – | < 0.001 µM | 4.13 µM | 0.00355 µM | 1.58 µM and 1.89 µM | – | 2.07 µM | – | 1.63 µM and 2.32 µM | 0.02 µM | 1.19 µM and 1.58 µM |
| CCCCCCCCCCCCCCCCOP(=O)(O)OP(=O)(O)OCC1OC(n2ccc(N)nc2=O)C(O)C1O (centres undefined) | > 100 µM and 23.8 µM | > 100 µM | – | > 100 µM | – | > 100 µM | – | > 100 µM | – | > 100 µM | – | > 100 µM | – | > 100 µM | – | > 100 µM |
| CNC(=O)Oc1cc(C)c(/C=C/c2cncc(C(=O)NC)c2)c(C)c1 | > 25 µM | > 25 µM | > 25 µM | > 25 µM | 24.8 µM | > 25 µM | > 21.2 µM | > 25 µM | > 25 µM | > 25 µM | > 25 µM | > 25 µM | 14.1 µM | > 25 µM | > 25 µM | > 25 µM |
| CCN(CC)CCCC(C)N=c1cc(Nc2cc(=NC(C)CCCN(CC)CC)c3cc(OC)ccc3o2)oc2ccc(OC)cc12 (centres undefined) | 1.99 µM | 13 µM | 0.441 µM | 3.78 µM | 2 µM | 16.3 µM | 2.66 µM | 13.2 µM | 0.679 µM | 2.15 µM | 3.16 µM | 9.49 µM | 0.528 µM | 1.17 µM | 0.58 µM | 2.37 µM |
| CC1(C)CCC(C)(C)c2c1ccc(O)c2Cc1c(O)ccc2c1C(C)(C)CCC2(C)C | – | 5.4 µM | – | 4.53 µM | – | 5.75 µM | – | 5.46 µM | – | 5.77 µM | – | 5.2 µM | – | 3.47 µM | – | 3.88 µM |
